From patent publication US20130072427A1, “GPR 119 MODULATORS” (Pfizer Inc., priority 2009, published 2013)
“And” between values parts separate entries of the source, which are not always exact repeats. Equal values may be shown once.

Assays:
human GPR119 [1] = target: T1, human GPR119 (Homo sapiens, UniProt Q8TDV5); experiment: Beta-arrestin functional assay (DiscoverX PathHunter U2OS hGPR119 β-arrestin cells); assay type: cell-based; design: Emax: dose or concentration left out as unconfirmed; settings: one line per run; for EC50: U2OS hGPR119 β-arrestin cells, 90 minute incubation, read-out: Human B-arrestin Functional EC50; for Emax: U2OS, percent of maximal activity relative to standard GPR119 agonist (WO2005121121) at 10 microM, read-out: Intrinsic Activity* (%) (B-arrestin)
T1 construct: host or cells: U2OS
Method: GPR119 agonist activity was also determined with a cell-based assay utilizing DiscoverX PathHunter β-arrestin cell assay technology and their U2OS hGPR119 β-arrestin cell line (DiscoverX Cat #93-0356C3). In this assay, agonist activation is determined by measuring agonist-induced interaction of β-arrestin with activated GPR119. A small, 42 amino acid enzyme fragment, called ProLink was appended to the C-terminus of GPR119. Arrestin was fused to the larger enzyme fragment, termed EA (Enzyme Acceptor). Activation of GPR119 stimulates binding of arrestin and forces the complementation of the two enzyme fragments, resulting in formation of a functional β-galactosidase enzyme capable of hydrolyzing substrate and generating a chemiluminescent signal.
Specifically, U2OS hGPR119 β-arrestin cells (DiscoverX 1×10^7/ml) are removed from cryopreservation and diluted in growth medium (Minimum essential medium (MEM; Gibco Cat #11095-080), 10% heat inactivated fetal bovine serum (HIFBS; Sigma Cat #F4135-100), 100 mM sodium pyruvate (Sigma Cat #S8636), 500 microg/mL G418 (Sigma Cat #G8168) and 250 microg/mL Hygromycin B (Invitrogen Cat #10687-010). The cell concentration was adjusted to 1.66×10^5 cells/ml and 30 mls of this suspension was added to a T-175 flask and incubated at 37 degrees Celsius in a humidified environment in 5% carbon dioxide. After 48 hours, the cells were removed from the T-175 flask with enzyme-free cell dissociation buffer (Gibco cat #13151-014), centrifuged at 800×g and then re-suspended in plating medium (Opti-MEM I (Invitrogen/BRL Cat #31985-070) and 2% charcoal dextran treated fetal bovine serum (CD serum; HyClone Cat #SH30068.03). The cell concentration was adjusted to 2.5×10^5 cells/ml with plating medium and 10 microL of this cell suspension (2500 cells) was added to each well of a white Greiner 384-well low volume assay plate (VWR cat #82051-458) and the plates were incubated at 37 degrees Celsius in a humidified environment in 5% carbon dioxide.
After 16 hours (overnight) the assay plates were removed from the incubator and varying concentrations of each compound to be tested (diluted in assay buffer (1×HBSS+CaCl2+MgCl2 (Gibco Cat #14025-092), 20 mM HEPES pH 7.0 (Gibco Cat #15630-080) and 0.1% BSA (Sigma Cat #A9576)) were added to the assay plate wells in a volume of 2.5 microL (final DMSO concentration was 0.5%). After a 90 minute incubation at 37 degrees Celsius in a humidified environment in 5% carbon dioxide, 7.5 microL of Galacton Star β-galactosidase substrate (PathHunter Detection Kit (DiscoveRx Cat #93-0001); prepared as described in the manufacturers assay protocol) was added to each well of the assay plate. The plates were incubated at room temperature and after 60 minutes, changes in the luminescence were read with an Envision 2104 multilabel plate reader at 0.1 seconds per well. EC50 determinations were made from an agonist-response curves analyzed with a curve fitting program using a 4-parameter logistic dose response equation.
T1 sequence (P32121 whole entry partner, one chain of several): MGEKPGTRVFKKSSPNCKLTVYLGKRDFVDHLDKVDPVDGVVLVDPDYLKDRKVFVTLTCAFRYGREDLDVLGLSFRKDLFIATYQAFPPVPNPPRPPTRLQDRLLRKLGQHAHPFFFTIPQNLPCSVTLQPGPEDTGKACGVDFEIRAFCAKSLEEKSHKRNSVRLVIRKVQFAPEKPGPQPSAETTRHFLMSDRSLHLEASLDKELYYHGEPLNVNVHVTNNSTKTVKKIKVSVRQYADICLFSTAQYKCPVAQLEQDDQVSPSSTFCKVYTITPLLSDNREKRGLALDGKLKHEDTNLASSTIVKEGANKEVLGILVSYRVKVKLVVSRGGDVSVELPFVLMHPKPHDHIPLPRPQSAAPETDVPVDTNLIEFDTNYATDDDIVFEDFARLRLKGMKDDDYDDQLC

human GPR119 [2] = target: T2, human GPR119 (Homo sapiens, UniProt Q8TDV5); experiment: Beta-lactamase functional assay (hGPR119 HEK293-CRE beta-lactamase reporter); assay type: cell-based; settings: one line per run; for EC50: hGPR119 HEK293-CRE beta-lactamase cells, 16 hours incubation, read-out: Human B-lactamase Functional EC50; for Emax: percent of maximal activity relative to standard GPR119 agonist (WO2005121121) at 10 microM, read-out: Intrinsic Activity* (%) (B-lactamase)
T2 construct: host or cells: HEK293-CRE beta-lactamase cells
T2 sequence (Q8TDV5 1-335): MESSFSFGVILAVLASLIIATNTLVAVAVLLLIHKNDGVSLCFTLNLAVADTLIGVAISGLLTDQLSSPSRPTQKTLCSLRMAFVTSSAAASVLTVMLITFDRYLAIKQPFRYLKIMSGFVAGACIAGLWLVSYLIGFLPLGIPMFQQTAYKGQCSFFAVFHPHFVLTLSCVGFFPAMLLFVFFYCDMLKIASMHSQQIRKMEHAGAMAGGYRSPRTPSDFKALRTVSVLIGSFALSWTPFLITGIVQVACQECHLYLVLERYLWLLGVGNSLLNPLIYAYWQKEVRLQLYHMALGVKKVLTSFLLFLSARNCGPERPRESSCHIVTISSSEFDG
Method: The assay for GPR119 agonists utilizes a cell-based (hGPR119 HEK293-CRE beta-lactamase) reporter construct where agonist activation of human GPR119 is coupled to beta-lactamase production via a cyclic AMP response element (CRE). GPR119 activity is then measured utilizing a FRET-enabled beta-lactamase substrate, CCF4-AM (Live Blazer FRET-B/G Loading kit, Invitrogen cat #K1027). Specifically, hGPR119-HEK-CRE-beta-lactamase cells (Invitrogen 2.5×10^7/mL) were removed from liquid nitrogen storage, and diluted in plating medium (Dulbecco's modified Eagle medium high glucose (DMEM; Gibco Cat #11995-065), 10% heat inactivated fetal bovine serum (HIFBS; Sigma Cat #F4135), 1×MEM Nonessential amino acids (Gibco Cat #15630-080), 25 mM HEPES pH 7.0 (Gibco Cat #15630-080), 200 nM potassium clavulanate (Sigma Cat #P3494). The cell concentration was adjusted using cell plating medium and 50 microL of this cell suspension ([…]) was added into each well of a black, clear bottom, poly-d-lysine coated 384-well plate (Greiner Bio-One cat #781946) and incubated at 37 degrees Celsius in a humidified environment containing 5% carbon dioxide. After 4 hours the plating medium was removed and replaced with 40 microL of assay medium (Assay medium is plating medium without potassium clavulanate and HIFBS). Varying concentrations of each compound to be tested was then added in a volume of 10 microL (final DMSO≦0.5%) and the cells were incubated for 16 hours at 37 degrees Celsius in a humidified environment containing 5% carbon dioxide. Plates were removed from the incubator and allowed to equilibrate to room temperature for approximately 15 minutes. 10 microL of 6×CCF4/AM working dye solution (prepared according to instructions in the Live Blazer FRET-B/G Loading kit, Invitrogen cat #K1027) was added per well and incubated at room temperature for 2 hours in the dark. Fluorescence was measured on an EnVision fluorimetric plate reader, excitation 405 nm, emission 460 nm/535 nm. EC50 determinations were made from agonist-response curves analyzed with a curve fitting program using a 4-parameter logistic dose-response equation.

Row | EC50 (human GPR119 [1]) | Emax (human GPR119 [1]) | EC50 (human GPR119 [2]) | Emax (human GPR119 [2]) | SMILES
1 | 23 nM | 77% | – | – | Cc1c(O[C@H]2CCN(C(=O)OC3(C)CC3)C[C@H]2F)ncnc1N1Cc2cnn(C)c2C1 (racemic) [Example 7, 1-Methylcyclopropyyl (3,4-cis)-3-fluoro-4-{[5-methyl-6-(1-methyl-4,6-dihydropyrrolo[3,4-c]pyrazol-5(1H)-yl)pyrimidin-4-yl]oxy}piperidine-1-carboxylate (racemic)]
2 | 81 nM and 754 nM | – | – | – | Cc1c(O[C@H]2CCN(C(=O)OC(C)(C)C)C[C@@H]2F)ncnc1N1Cc2cnn(C)c2C1 (racemic) [Example 8, tert-Butyl (3,4-trans)-3-fluoro-4-{[5-methyl-6-(1-methyl-4,6-dihydropyrrolo[3,4-c]pyrazol-5(1H)-yl)pyrimidin-4-yl]oxy}piperidine-1-carboxylate (racemic)]
3 | 56 nM | 70% | – | – | Cc1c(O[C@H]2[C@@H]3COC[C@H]2CN(C(=O)OC(C)(C)C)C3)ncnc1N1Cc2cnn(C)c2C1 [Example 9, tert-Butyl (9-anti)-9-{[5-methyl-6-(1-methyl-4,6-dihydropyrrolo[3,4-c]pyrazol-5(1H)-yl)pyrimidin-4-yl]oxy}-3-oxa-7-azabicyclo[3.3.1]nonane-7-carboxylate]

Second part, the compound before the results:

Row | SMILES | EC50 (human GPR119 [1]) | Emax (human GPR119 [1]) | EC50 (human GPR119 [2]) | Emax (human GPR119 [2])
4 | Cc1c(O[C@H]2CCN(C(=O)OC(C)(C)C)C[C@H]2F)ncnc1N1Cc2cnn(C)c2C1 (racemic) [Example 6, tert-Butyl (3,4-cis)-3-fluoro-4-{[5-methyl-6-(1-methyl-4,6-dihydropyrrolo[3,4-c]pyrazol-5(1H)-yl)pyrimidin-4-yl]oxy}piperidine-1-carboxylate (racemic)] | 19 nM | 67% | – | –
5 | Cc1c(OC2CCN(C(=O)OC(C)C)CC2)ncnc1N1Cc2cnn(C)c2C1 [Example 2, Isopropyyl 4-{[5-methyl-6-(1-methyl-4,6-dihydropyrrolo[3,4-c]pyrazol-5(1H)-yl)pyrimidin-4-yl]oxy}piperidine-1-carboxylate] | – | – | 662 nM | 103%
6 | CC(C)OC(=O)N1CCC(Oc2ncnc(N3Cc4cnn(C)c4C3)c2C#N)CC1 [Example 3, Isopropyyl 4-{[5-cyano-6-(1-methyl-4,6-dihydropyrrolo[3,4-c]pyrazol-5(1H)-yl)pyrimidin-4-yl]oxy}piperidine-1-carboxylate] | – | – | 2050 nM | 107%
